{
  "source": "paper PMC5382172",
  "about": "(Frontiers in Molecular Neuroscience, 2017)",
  "key": {"GluClαF276A/βWT receptor": {"target": "T1, GluClαF276A/βWT receptor (Caenorhabditis elegans, UniProt G5EBR3+Q17328, F276A)", "T1 construct": "entry codes of the full-length subunits used in this study; expressed in transfected cells; host or cells: CHO cells, transient co-transfection, pcDNA3.1 (X-tremeGENE HP for the IVM-EC50 experiments)", "T1 sequence (G5EBR3 21-461 F276A, one chain of several)": "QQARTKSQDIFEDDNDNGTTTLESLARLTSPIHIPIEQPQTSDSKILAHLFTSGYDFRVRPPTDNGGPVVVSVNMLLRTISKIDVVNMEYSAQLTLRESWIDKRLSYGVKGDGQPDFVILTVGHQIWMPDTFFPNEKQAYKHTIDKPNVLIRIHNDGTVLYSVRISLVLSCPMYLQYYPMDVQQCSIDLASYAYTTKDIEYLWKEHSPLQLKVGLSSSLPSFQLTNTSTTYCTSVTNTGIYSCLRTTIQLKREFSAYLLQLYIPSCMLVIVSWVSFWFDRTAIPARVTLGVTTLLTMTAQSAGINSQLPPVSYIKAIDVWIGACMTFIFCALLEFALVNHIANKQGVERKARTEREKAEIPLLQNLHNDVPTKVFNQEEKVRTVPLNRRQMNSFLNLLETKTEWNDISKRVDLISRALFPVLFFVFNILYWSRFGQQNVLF", "experiment": "Whole-cell patch clamp in CHO cells, GluClαF276A/βWT receptor", "assay_type": "cell-based", "procedure": "Chinese hamster ovary (CHO) cells were cultured as previously (Bar-Lev et al., [2011]) in Dulbecco’s Modified Eagle Medium (DMEM) containing 10% fetal calf serum, 2 mM glutamax, 100 Units/ml penicillin G and 100 μg/ml streptomycin, and grown in 5% CO2 at 37°C under 90%–95% humidity. The cells were seeded on glass coverslips (13-mm diameter) placed in a 24-multiwell plate. […] For the expression of GluCl receptors, cells were transiently co-transfected with pcDNA3.1 plasmids containing the ORFs of interest using transit-LT1 transfection reagent (Mirus, Madison, WI, USA), according to the manufacturer’s protocol. The cDNAs encoding the C. elegans GluClα (GLC-1) or its mutated versions and the GluClβ (GLC-2) subunits (200–600 ng per well) were used at 1:1 ratio. The pIRES-CD8 plasmid (200 ng per well) was added to enable the visualization of the expressing cells by beads coated with anti-CD8 antibodies (Invitrogen). For high-level expression of the GluClαF276A/βWT mutant receptor in experiments assigned to determine its IVM-EC50, we used the X-tremeGENE HP DNA Transfection Reagent (Roche Life Science). Recordings were performed 72–96 h following the transfection.\nWhole-cell patch clamp recordings were performed as described previously (Bar-Lev et al., [2011]) in CHO cells that were prepared as detailed above. The normal external solution (NES) contained (in millimolar): 140 NaCl, 2.8 KCl, 2 CaCl2, 2 MgCl2, 10 glucose and 10 HEPES, adjusted to pH 7.35 with NaOH (310 mOsm/L). The pipette solution contained (in millimolar): 130 KCl, 4 MgCl2, 4 Na2ATP, 1 EGTA and 10 HEPES, adjusted to pH 7.35 with KOH (290 mOsm/L). The osmolarity of these solutions was maintained by adding sucrose. The electrode resistance was 6–10 MΩ when filled with the pipette solution. External solutions were applied onto the cell by using the VC-77SP fast-step system (Warner Instruments, Hamden, CT, USA) combined with N2 pressure of 3–4 psi to produce laminar flow of the external solution onto the patched cell. All measurements were performed at room temperature. The currents were measured with an Axopatch 200B patch-clamp amplifier (Molecular Devices, Sunnyvale, CA, USA) and a Digidata 1440A interface (Molecular Devices). Acquisition of recording data was performed at 2.5 kHz and recordings were low-pass filtered at 1 kHz, through a four-pole Bessel filter. The pClamp 10 software (Molecular Devices) was used for data acquisition. […] Five-hundred milliseconds after the application started (which is also after the current reached to its peak at −60 mV), the voltage was stepped from −60 mV to −80 mV for 50 ms followed by a 250-ms-long voltage ramp ranging from −80 mV to +80 mV.\nDose-response curves were fitted to the data points by a nonlinear regression using the Hill Equation 1,"}, "[1]": {"target": "T2, GluClαWT (GLC-1) homomeric receptor (Caenorhabditis elegans, UniProt G5EBR3)", "T2 construct": "entry codes of the full-length subunits used in this study; expressed in transfected cells; host or cells: CHO cells, transient transfection, pcDNA3.1", "T2 sequence (G5EBR3 21-461)": "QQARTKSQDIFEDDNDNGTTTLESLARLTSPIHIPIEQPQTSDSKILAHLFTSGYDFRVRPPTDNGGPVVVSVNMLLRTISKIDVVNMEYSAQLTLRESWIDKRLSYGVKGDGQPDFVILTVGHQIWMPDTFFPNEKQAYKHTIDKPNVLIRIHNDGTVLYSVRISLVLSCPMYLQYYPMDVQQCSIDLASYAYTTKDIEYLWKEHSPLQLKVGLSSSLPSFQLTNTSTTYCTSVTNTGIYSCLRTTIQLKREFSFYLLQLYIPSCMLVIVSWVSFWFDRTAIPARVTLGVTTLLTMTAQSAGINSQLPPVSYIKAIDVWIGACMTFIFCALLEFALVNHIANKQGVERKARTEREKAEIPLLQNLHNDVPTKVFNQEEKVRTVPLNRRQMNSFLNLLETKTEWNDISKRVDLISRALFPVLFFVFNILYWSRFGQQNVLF", "design": "method as in Degani-Katzav et al., [2016]", "settings": "CHO cells, αWT alone; ref Degani-Katzav et al., [2016]; cited from earlier work"}, "GluClαWT/βWT receptor": {"target": "T3, GluClαWT/βWT receptor (Caenorhabditis elegans, UniProt G5EBR3+Q17328)", "T3 construct": "entry codes of the full-length subunits used in this study; expressed in transfected cells; host or cells: CHO cells, transient co-transfection 1:1, pcDNA3.1", "T3 sequence (G5EBR3 21-461)": "T2 sequence (G5EBR3 21-461)", "T3 sequence (Q17328 23-434)": "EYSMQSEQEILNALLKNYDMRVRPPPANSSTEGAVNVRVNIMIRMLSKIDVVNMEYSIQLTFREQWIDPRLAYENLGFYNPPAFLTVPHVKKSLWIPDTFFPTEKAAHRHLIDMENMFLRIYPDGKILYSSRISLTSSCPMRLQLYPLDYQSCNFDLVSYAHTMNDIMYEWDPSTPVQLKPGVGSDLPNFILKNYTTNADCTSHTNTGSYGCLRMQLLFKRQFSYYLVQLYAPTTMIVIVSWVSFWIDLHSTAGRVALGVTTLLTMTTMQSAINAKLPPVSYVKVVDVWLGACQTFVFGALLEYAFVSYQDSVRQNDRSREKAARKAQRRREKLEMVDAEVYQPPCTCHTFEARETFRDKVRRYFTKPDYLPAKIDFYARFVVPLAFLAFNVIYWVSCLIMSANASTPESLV", "design": "method as in Degani-Katzav et al., [2016]", "settings": "CHO cells co-transfected with WT α and β subunits; ref Degani-Katzav et al., [2016]; cited from earlier work"}, "wild type GluClα/βR": {"system": "wild type GluClα/βR", "design": "method as in Cully et al., [1994]", "settings": "5 nM IVM, Xenopus oocytes; ref Cully et al., [1994]; cited from earlier work"}},
  "note": "Several values for one entry are separate records, joined by “and”; a condition that tells them apart may be missing. Equal values may be shown once.",
  "data": [
    {"smiles": "CC[C@H](C)[C@H]1O[C@]2(CC[C@@H]1C)C[C@@H]1C[C@@H](C/C=C(\\C)[C@@H](O[C@H]3C[C@H](OC)[C@@H](O[C@H]4C[C@H](OC)[C@@H](O)[C@H](C)O4)[C@H](C)O3)[C@@H](C)/C=C/C=C3\\CO[C@@H]4[C@H](O)C(C)=C[C@@H](C(=O)O1)[C@]34O)O2", "note": "[IVM, ivermectin]", "values": [
      {"measurement": "increase in IVM-EC50 relative to GluClαWT/βWT", "setting": "GluClαF276A/βWT receptor", "value": 20, "unit": "fold"},
      {"measurement": "Fold decrease in Glu-EC50 observed after pre-exposure to IVM", "setting": "GluClαF276A/βWT receptor; 50 nM IVM", "value": "~ 8.5 fold"},
      {"measurement": "magnitude of the IVM-elicited current", "setting": "GluClαF276A/βWT receptor; 50 nM IVM, -60 mV, just before the second application of Glu", "value": 70, "unit": "pA"},
      {"measurement": "decrease of IVM/Glu response ratio compared to GluClαWT/βWT", "setting": "GluClαF276A/βWT receptor; 500 nM IVM (-60 mV) over Glu-EC50 concentration (+60 mV) peak currents", "value": "~ 7 fold"},
      {"measurement": "fold-potentiation of Glu-elicited response by IVM", "setting": "GluClαF276A/βWT receptor; 1 mM Glu before and after exposure to 50 nM IVM", "value": "~ 18 fold and 17.9 ± 1.8 fold"},
      {"measurement": "IVM (500 nM) Amplitude", "setting": "GluClαF276A/βWT receptor; CHO cells, 500 nM IVM, -60 mV", "value": "0.2 ± 0.03", "unit": "nA"},
      {"measurement": "Hill coefficient of activation by IVM", "setting": "GluClαF276A/βWT receptor; cumulative IVM concentrations, -60 mV", "value": "3.5 and 3.5 ± 0.40"},
      {"measurement": "EC50", "setting": "GluClαF276A/βWT receptor; cumulative IVM concentrations, -60 mV, high-level expression (X-tremeGENE HP)", "value": 0.802, "unit": "µM"},
      {"measurement": "response to 500 nM IVM", "setting": "[1]", "value": "robust responses"},
      {"measurement": "response to IVM", "setting": "GluClαWT/βWT receptor", "value": "robust responses"},
      {"measurement": "potentiation of Glu-sensitive currents by IVM", "setting": "wild type GluClα/βR", "value": "~ 5 fold"}
    ]}
  ]
}
